Assay results published in paper PMC11013444, “3-NAntC: A Potent Crotoxin B-Derived Peptide against the Triple-Negative MDA-MB-231 Breast Cancer Cell Line” (Molecules, 2024).
Values after ≈ are worked out from the molar mass of the structure shown. “Also recorded” adds a separate entry of the source. Where two headings read alike, the source gives them in different places. Where no end group is shown, it is not given here.

Legend:
MDA-MB-231 cells [1] = assay: cells; type: cell-based, human; conditions: for IC50: Homo sapiens, MDA-MB-231, MTT, range 0.2–2.0 µg/mL, Figure 4, read-out: IC50 (cell viability)
Experimental: (§1) MCF-7 (Luminal breast cancer), MDA-MB-231 (TNBC), and MCF10A (non-tumor mammary gland epithelial cells) were purchased from the Rio de Janeiro Cell Bank (BCRJ, Rio de Janeiro, RJ, Brazil). HMEC (Primary Mammary Epithelial Cells) and HDFa (Human Dermal Fibroblasts) cell lines were purchased from Gibco (Waltham, MA, USA). MCF-7 and MDA-MB-231 were cultured in an RPMI 1640 medium supplemented with 10% heat-inactivated FBS, 1% glutamine, and 1% antibiotic/antimycotic solution. MCF10A and HMEC were cultured in MEBM medium supplemented with 100 ng/mL cholera toxin, 2.5 mM L-glutamine, 5% horse serum, 10 µg/mL human insulin, 0.5 µg/mL hydrocortisone, and 10 ng/mL EGF. All cells used in this study were incubated at 37 °C under 5% CO2 and checked for authenticity through polymerase chain reaction (PCR) followed by fragment analysis of eight highly polymorphic microsatellite loci (short tandem repeat—STR) plus gender determination with score ≥ 80%.
(§2) Stock solutions of Peptides 1 to 12, doxorubicin, and cisplatin were prepared in PBS (1X). Doxorubicin and cisplatin were stored at −20 °C and the peptide solutions were freshly prepared before each experiment. The final concentration of PBS (1X) in the culture medium was lower than 0.02%. All the negative controls contained this vehicle in the same culturing conditions as previously described.
(§3) Cell viability assay was conducted using the MTT method. For treatments lasting 24 h, the cells were seeded at the density of 2 × 10^4 cells/well into 96-well sterile plates, and for treatments lasting 48 or 72 h, the cell density was 1 × 10^4 cells/well. The following day, cells were treated by applying 200 μL/well of each agent (Peptides 1 to 12, doxorubicin, or cisplatin) at the desired concentration and incubated for the duration of the treatment. Afterward, cells were incubated with 20 μL/well of an MTT solution (5 mg/mL) for 2.5 h. Then, formazan salts were solubilized with 200 μL of DMSO: isopropanol (3:1) and agitated for at least 15 min at room temperature. The absorbance was measured at 570 nm with a spectrophotometer (Molecular devices Spectra Max Plus 384—San Jose, CA, USA), and relative cell viability was calculated. To evaluate the mechanism of cell death, cell cultures were treated with peptides in the presence or absence of 3-methyladenine (3-MA) ([…]), which is an autophagy inhibitor [37]. After treatment, the MTT assay was carried out as previously described.

HDFa cells [2] = assay: cells; type: cell-based, human
Experimental: as §1, §2, §3

MCF10A cells = type: cell-based, human
Experimental: as §1, §2, §3

HMEC cells = type: cell-based, human; conditions: 72 h, 1 µg/mL
Experimental: as §1, §2, §3

MCF-7 cells = type: cell-based, human; conditions: for cell viability: 1 µg/mL
Experimental: as §1, §2, §3

MDA-MB-231 cells [3] = assay: LDH release assay; type: cell-based, human; conditions: 0–1.0 µg/mL
Experimental: The CyQUANT LDH Cytotoxicity Assay (Thermo Fisher, Waltham, MA, USA) was employed to determine LDH release as a measure of plasma membrane damage, an important indicator of necrosis and pyroptosis. […] Cell seeding and treatments proceeded as presented in Section 4.3. After treatment incubation, 20 μL of supernatant was transferred to an EIA/RIA plate. The Reaction Mixture (20 μL/well) was added and incubated at room temperature for 30 min in the dark. Afterward, 60 μL/well of the Stop Solution was added and the absorbance of the reaction mixtures was quantified at both 490 nm and 680 nm with a spectrophotometer (Molecular devices Spectra Max Plus 384—San Jose, CA, USA). The absorbance at 680 nm was subtracted from the value at 490 nm, and then relative LDH release was calculated.

MDA-MB-231 cells [4] = assay: Cell proliferation assay (BrdU incorporation) in MDA-MB-231; type: cell-based, human; conditions: for IC50 (proliferation): range 0.2–1.0 µg/mL
Experimental: (§4) Cell proliferation was assessed with the BrdU method using the Cell Proliferation ELISA, BrdU (colorimetric) kit from Roche (Basel, Switzerland). Cell seeding and treatments were carried out as presented in Section 4.3. BrdU-labeling (20 μL/well) was added and incubated for 2.5 h. Then, ELISA was performed with an anti-BrdU-POD antibody, followed by washing and substrate solutions. The substrate was then developed for 15 min and the reaction was stopped with HCl (6M). The absorbance was measured at 495 nm with a spectrophotometer (Molecular devices Spectra Max Plus 384—San Jose, CA, USA), and the relative cell proliferation was calculated.

zebrafish embryos = assay: In vivo zebrafish embryo toxicity study
Experimental: Transgenic Tg(fli1:EGFP)^y1 zebrafish embryos were raised at 28 °C for 48 h in E3 embryo medium 0.2 mM 1-Phenyl-2-Thiourea (PTU). […] Zebrafish embryos obtained at 48 h post fertilization (hpf), n = 20 embryos/group, were subcutaneously injected with the 3-NAntC peptide at 0.0015, 0.015, 0.15, 75, and 150 mg/mL diluted in E3 embryo medium containing 0.003% 1-phenyl-2-thiourea (PTU) and the embryos were maintained at 28.5 °C. Pictures were taken after 24, 48, and 72 h of peptide exposure and the percentage of live animals, as well as the percentage of live animals with malformations, were visually analyzed.

HDFa cells [5] = assay: Cell proliferation assay (BrdU incorporation) in HDFa; type: cell-based, human; conditions: 72 hours, range 0.2–1.0 µg/mL
Experimental: as §4

Molecule: COc1cccc2c1C(=O)c1c(O)c3c(c(O)c1C2=O)C[C@@](O)(C(=O)CO)C[C@@H]3O[C@H]1C[C@H](N)[C@H](O)[C@H](C)O1 [Doxorubicin, doxorubicin, reference compound]
- IC50 (MDA-MB-231 cells [1]; 48 hours): 0.21 µg/mL (≈ 0.386 µM)
- IC50 (MDA-MB-231 cells [1]; 72 hours): 0.17 µg/mL (≈ 0.313 µM)
- IC50 (HDFa cells [2]; Homo sapiens, HDFa, 24 hours, MTT, range 0.2–2.0 µg/mL, Figure 4, read-out: IC50 (cell viability)): 1.12 µg/mL (≈ 2.06 µM)

Molecule: CSCC[C@H](N)C(=O)N[C@@H](Cc1ccccc1)C(=O)N[C@@H](Cc1ccc(O)cc1)C(=O)N1CCC[C@H]1C(=O)N[C@@H](CC(=O)O)C(=O)N[C@@H](CO)C(=O)N[C@@H](CCCNC(=N)N)C(=O)N[C@@H](CS)C(=O)N[C@@H](CCCNC(=N)N)C(=O)NCC(=O)N1CCC[C@H]1C(=O)N[C@@H](CO)C(=O)N[C@@H](CCC(=O)O)C(=O)N[C@H](C(=O)O)[C@@H](C)O [Peptide 3-NAntC]
- cell viability (MDA-MB-231 cells [1]; 24 h, 0.8 µg/mL): 77.5 ± 15.0%
- IC50 (cell viability) (MDA-MB-231 cells [1]; 48 h): 1.44 µg/mL (≈ 0.875 µM)
- cell viability (MDA-MB-231 cells [1]; 48 h, 0.8 µg/mL): 60.8 ± 17.9%
- cell viability (MDA-MB-231 cells [1]; 48 h, 1 µg/mL): 64.6 ± 14.5%
- IC50 (cell viability) (MDA-MB-231 cells [1]; 72 h): 0.55 µg/mL (≈ 0.334 µM)
- cell viability (MDA-MB-231 cells [1]; 72 h, 1 µg/mL): 49.0 ± 17.5%
- IC50 (cell viability) (HDFa cells [2]; 72 h): > 2 µg/mL
- cellular viability (HDFa cells [2]; 72 h, 1 µg/mL): higher than 80%
- cell viability (MCF10A cells; 24 h, 2.5 µg/mL): 93.4 ± 7.4%
- IC50 (cell viability) (MCF10A cells; 48 h): > 20 µg/mL
- cell viability (MCF10A cells; 48 h, 2.5 µg/mL): 80.5 ± 5.3%
- cell viability (MCF10A cells; 48 h, 20 µg/mL): 65.9 ± 10.3%
- cell viability (HMEC cells): 98.2 ± 13.8%
- IC50 (cell viability) (MCF-7 cells; 24 h): 2.31 µg/mL (≈ 1.4 µM)
- IC50 (cell viability) (MCF-7 cells; 48 h): 1.49 µg/mL (≈ 0.905 µM)
- cell viability (MCF-7 cells; 48 h): 54.7 ± 15.5%
- IC50 (cell viability) (MCF-7 cells; 72 h): 1.49 µg/mL (≈ 0.905 µM)
- cell viability (MCF-7 cells; 72 h): 62.9 ± 26.0%
- LDH release (MDA-MB-231 cells [3]; 24 and 48 h treatments): did not consistently increase LDH release
- LDH release (MDA-MB-231 cells [3]; 72 h): increase in LDH release
- maximum proliferation inhibition (MDA-MB-231 cells [4]; 0.6 µg/mL, 48 h, mean ± SEM): 71.1 ± 27.1%
- IC50 (proliferation) (MDA-MB-231 cells [4]; 24h): 0.46 µg/mL (≈ 0.279 µM)
- IC50 (proliferation) (MDA-MB-231 cells [4]; 48h): 0.46 µg/mL (≈ 0.279 µM)
- IC50 (proliferation) (MDA-MB-231 cells [4]; 72h): 0.37 µg/mL (≈ 0.225 µM)
- lethality (zebrafish embryos; 150 mg/mL, after 48 and 72 h of treatment, n = 20 embryos/group): 45%
- surviving embryos exhibiting malformations (zebrafish embryos; 150 mg/mL, n = 20 embryos/group): 50–60%
- lethality and non-lethal events (malformations) (zebrafish embryos; 1.5 to 150 µg/mL and 75 mg/mL, embryos 48 hpf, n = 20 embryos/group, 24, 48, 72 h): no lethal effects; also recorded: did not show lethality or significant non-lethal events (malformations)
- LD50 (dose that kills 50% of the embryos) (zebrafish embryos; doses up to 150 mg/mL): could not be determined
- IC50 (proliferation) (HDFa cells [5]): > 1 µg/mL

Molecule: CC[C@H](C)[C@H](NC(=O)[C@H](CCSC)NC(=O)[C@H](CCCCN)NC(=O)[C@H](CC(N)=O)NC(=O)[C@H](Cc1ccccc1)NC(=O)[C@H](CCC(N)=O)NC(=O)[C@H](CC(C)C)NC(=O)[C@H](CC(C)C)NC(=O)[C@@H](N)Cc1c[nH]cn1)C(=O)N[C@@H](CCCCN)C(=O)N[C@@H](Cc1ccccc1)C(=O)N[C@@H](CCC(=O)O)C(=O)N[C@H](C(=O)N[C@@H](CCCNC(=N)N)C(=O)N[C@@H](CCCCN)C(=O)N[C@@H](CC(N)=O)C(=O)N[C@@H](C)C(=O)N[C@H](C(=O)N1CCC[C@H]1C(=O)N[C@@H](Cc1ccccc1)C(=O)O)[C@@H](C)CC)[C@@H](C)O [Peptide 1]
- cell viability (MDA-MB-231 cells [1]; 24 h, 2.5 µg/mL): 94.4 ± 4.6%
- cell viability (MDA-MB-231 cells [1]; 48 h, 2.5 µg/mL): 90.7 ± 3.0%

Molecule: AIPFYAFY [Peptide 2]
- IC50 (cell viability) (MDA-MB-231 cells [1]; 24 h): > 20 µg/mL
- cell viability (MDA-MB-231 cells [1]; 24 h, 2.5 µg/mL): 81.6 ± 5.0%
- IC50 (cell viability) (MDA-MB-231 cells [1]; 48 h): > 20 µg/mL
- cell viability (MDA-MB-231 cells [1]; 48 h, 2.5 µg/mL): 85.0 ± 7.9%
- IC50 (cell viability) (MCF10A cells; 48 h): > 20 µg/mL
- cell viability (MCF10A cells; 48 h, 2.5 µg/mL): 85.7 ± 11.2%
